This test relates to CD34+ cells. The test can be described thus: SDF-1 transwell migration assay. Type of test: cell-based. Particulars: CD34+ cells treated 4 hours at 37° C. at 10 μM, washed; 50 ng/mL SDF1 in lower chamber, 2.5 hours; compared to DMSO control. As for the experimental part: Transwell migration assays were performed using 96-well chemotaxis chambers, […] pore size polycarbonate membrane (Corning Inc., Corning, N.Y.) in accordance with manufacturer's instructions. Briefly, CD34^+ cells were then treated for 4 hours at 37° C. with 16,16-dimethyl PGE2 (dmPGE2), dmPGE2 and glucocorticoid, or DMSO control at a concentration of 10 μM in StemSpan® media (StemCell Technology, Vancouver, Canada). The cells were then washed by centrifugation (300 g for 10 minutes) and resuspended in transwell assay buffer (Phenol Red Free RPMI media (Mediatech), 0.5% lipid free BSA (Sigma-Aldrich) at a concentration of 40,000-60,000 cells/75 μl.
To test the duration of the treatment effects, one portion of treated cells was washed by centrifugation (300 g for 10 minutes) and resuspended in StemSpan® media for 4 hours at 37° C. without dmPGE2, glucocorticoids, or DMSO and then washed again by centrifugation (300 g for 10 minutes) and resuspended in transwell assay buffer (Phenol Red Free RPMI media (Mediatech), 0.5% lipid free BSA (Sigma-Aldrich) at a concentration of 40,000-60,000 cells/75 μl.
Seventy-five μl of cell suspension was added to the upper chamber of the plate, while 235 μl of transwell assay media containing 0 or 50 ng/ml SDF 1α (R&D system, Minneapolis, Minn.) was added to the bottom well. […]

Consider `CCCCC(C)(C)[C@H](O)/C=C/[C@H]1[C@H](O)CC(=O)[C@@H]1C/C=C\CCCC(=O)O` [dmPGE2, 16,16-dimethyl PGE2], for which the “SDF1-driven cell migration (% of cells added)” value is given as “increased SDF1-driven cell migration compared to the DMSO control”.

The values are drawn from patent US10111907B2, “Methods of treating ischemia” (FATE THERAPEUTICS, INC., priority 2011, dated 2018).
